Results taken from BindingDB's records for patent US12043645 (Memorial Sloan-Kettering Cancer Center, 2024).

Target: Set1/Ash2 histone methyltransferase complex subunit ASH2 (Homo sapiens, UniProt Q9UBL3)
Assay: Filter-paper Assay
Method: This assay relies on Whatman P-81 filter paper, which binds peptides but not SAM. Protein Methyl Transferases (PMTs) transfer 3H-Me of [3H-Me]-SAM to peptide substrates and the resultant 3H-methylated, filter-paper-bound peptide is quantified with a scintillation counter. Briefly, 6 μL of the methylation reaction was spotted onto Whatman P-81 phosphocellulose filter paper (1.2×1.2 cm2) to immobilize the 3H-labeled peptide. After drying in air for 20 min, the filter paper was immersed into 20 mL of 50 mM Na2CO3/NaHCO3 buffer (pH=9.2), and washed 5 times for 10 min each time. The washed filter paper was then transferred to a 20 mL scintillation vial containing 1 mL of distilled water and 10 mL of Ultima Gold scintillation cocktail or 7 mL scintillation vial containing 0.5 mL od distilled water and 5 mL of scintillation cocktail (PerkinElmer). The radioactivity was quantified by a Beckman LS6000IC liquid scintillation counter.

Chain of Set1/Ash2 histone methyltransferase complex subunit ASH2 (Q9UBL3 whole entry, one chain of several): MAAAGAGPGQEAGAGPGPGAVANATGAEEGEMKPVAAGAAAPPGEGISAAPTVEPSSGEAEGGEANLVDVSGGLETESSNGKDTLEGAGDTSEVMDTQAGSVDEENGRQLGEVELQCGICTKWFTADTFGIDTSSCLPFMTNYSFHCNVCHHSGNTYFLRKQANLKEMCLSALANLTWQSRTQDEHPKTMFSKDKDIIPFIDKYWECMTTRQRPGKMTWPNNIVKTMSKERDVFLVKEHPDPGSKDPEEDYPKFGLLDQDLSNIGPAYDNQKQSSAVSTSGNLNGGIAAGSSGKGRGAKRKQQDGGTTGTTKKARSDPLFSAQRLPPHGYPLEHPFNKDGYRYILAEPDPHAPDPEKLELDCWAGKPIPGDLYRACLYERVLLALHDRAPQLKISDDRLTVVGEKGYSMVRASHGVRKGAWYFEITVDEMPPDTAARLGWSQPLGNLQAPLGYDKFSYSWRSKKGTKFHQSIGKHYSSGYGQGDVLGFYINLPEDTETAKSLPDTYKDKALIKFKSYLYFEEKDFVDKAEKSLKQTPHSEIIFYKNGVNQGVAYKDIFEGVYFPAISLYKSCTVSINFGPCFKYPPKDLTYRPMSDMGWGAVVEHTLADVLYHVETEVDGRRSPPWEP

| SMILES | IC50 [nM] |
| --- | --- |
| COc1ccc(CCNC(=O)[C@@H](N)CC[C@@H](CC2OC(n3cnc4c(N)ncnc43)C(O)C2O)Nc2ccccc2)cc1 (stereo partly drawn) [US12043645, Example 1] | 390 |
| Nc1ncnc2c1ncn2C1OC(C[C@H](CC[C@H](N)C(=O)NCCc2cc(-c3ccccc3)[nH]n2)Nc2ccccc2)C(O)C1O (stereo partly drawn) [US12043645, Example 5] | 2200 |
| CCCNC(=O)[C@@H](N)CC[C@@H](CC1OC(n2cnc3c(N)ncnc32)C(O)C1O)Nc1ccccc1 (stereo partly drawn) [US12043645, Example 7] | 20 |
